Assay results as given in patent US8637665B2, “Pyrrolo[2,L-C][L,4]benzodiazepine-benzothiazole or benzoxazole conjugates linked through piperazine moiety and process for the preparation thereof” (priority 2010, dated 2014).

Key:
[1] = test system: PC 3 (prostate cancer) cell line; test: cells; type: cell-based; settings: Homo sapiens, 48 h
Method in brief: (§1)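 48 h continuous exposure; ≥5 concns, 10-fold dilutions. SRB protein stain for growth/viability. GI50 and LC50 (−50% growth) vs untreated control.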

[2] = test system: HOP 62 (lung cancer) cell line; test: cells; type: cell-based; settings: Homo sapiens, HOP-62, 48 h
Method in brief: (§2)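 Each compound: minimum five concentrations, 10-fold apart. Continuous 48 h drug exposure, then SRB protein assay for cell growth. GI50 (50% growth inhibition) and LC50 (50% cell death, −50% growth) calculated against control.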

[3] = test system: MCF 7 (breast cancer) cell line; test: cells; type: cell-based; settings: Homo sapiens, MCF7, 48 h
Method in brief: as §1

[4] = test system: Colo 205 (colon cancer) cell line; test: cells; type: cell-based; settings: Homo sapiens, COLO 205, 48 h
Method in brief: as §1

[5] = test system: A 2780 (ovary cancer) cell line; test: cells; type: cell-based; settings: Homo sapiens, A2780, 48 h
Method in brief: as §1

[6] = test system: SiHa (cervix cancer) cell line; test: cells; type: cell-based; settings: Homo sapiens, SiHa, 48 h
Method in brief: as §1

[7] = test system: A 549 (lung cancer) cell line; test: cells; type: cell-based; settings: Homo sapiens, A549, 48 h
Method in brief: as §1

[8] = test system: MCF-7 (breast cancer) xenografts; test: In vivo efficacy study on xenograft MCF-7; settings: MCF-7 xenograft, scid male mice; compared with positive control adriamycin
Description: (§3) References may be made to patent “WO/2008/099416” wherein Benzothiazole or benzoxazole linked Pyrrolo[2,1-c][1,4] benzodiazepine hybrid as anticancer agent has been reported. References may be made to patent “U.S. Pat. No. 6,979,684” wherein Pyrrolo[2,1-c][1,4] benzodiazepine and naphthalimide are linked through piperazine moiety. The linking of pharmacophore like napthalimide and piperazine to pyrroloberizodiazepine can not be considered similar to a pharmacophore like benzothiazole as each pharmacophore is known for certain biological property. In the present investigation the benzothiaole and piperazine subunits are considered to be a different heterocyclic moieties compared to the earlier reported pharmacophores like napthalimide. Therefore, this structural variation of benzothiazole with piperazine moiety has been utilized for DNA binding aspect. Keeping this in mind, these new conjugates have been designed and synthesized to further improve the anticancer activity including the DNA binding affinity. The anticancer activity may not depend on the DNA binding activity. […] Moreover, one of the potent conjugate 9f (IICT-302) of this series has been evaluated for its in vivo efficacy studies (in scid male mice) against MCF-7 (breast cancer) and PC-3 (prostate cancer) xenografts by using adriamycin as a positive control.
FIG. 2 represents in vivo efficacy study of compound 9f on xenograft MCF-7.
(§4) The structural variation of benzothiazole/benzoxazole with piperazine moiety has been utilized for DNA binding aspect. Moreover, one of the potent conjugate 9f (IICT-302) of this series has been evaluate for its in vivo efficacy studies against MCF-7 (breast cancer) and PC-3 (prostate cancer) by using Adriamycin as positive control.

[9] = test system: eight tumour cells lines derived from seven cancer types; test: In vitro anticancer activity, SRB assay, panel of eight cell lines; type: cell-based; settings: Homo sapiens, range over the eight cell lines per compound; read-out: GI50 range against cancer cell lines
Method in brief: as §2

[10] = test system: duplex-form calf thymus DNA (CT-DNA); test: Thermal denaturation studies with calf thymus DNA (DNA binding affinity); settings: [PBD]:[DNA] 1:5, CT-DNA 100 μM, ligand 20 μM, pH 7.00
Method in brief: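 CT-DNA (100 μm in phosphate) with PBD (20 μm; 1:5 PBD/DNA molar ratio) in 10 mM sodium phosphate, 1 mM Na2EDTA, pH 7.00, incubated at 37° C for 0 and 18 h. A260 monitored while heating at 1° C min^−1 over 40-110° C; Tm from d(A260)/dT maxima, ΔTm versus drug-free DNA.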

[11] = test system: KB (oral cancer) cell line; test: In vitro anticancer activity, SRB assay, KB; type: cell-based, human; settings: Homo sapiens, 48 h
Method in brief: as §2

[12] = test system: PC-3 (prostate cancer) xenografts; test: In vivo efficacy study on xenograft PC3; settings: PC-3 xenograft, scid male mice; compared with positive control adriamycin
Description: as §3
FIG. 3 represents in vivo efficacy study of compound 9f on xenograft PC3.
as §4

`COc1cc(-c2nc3ccccc3s2)ccc1OCCCCN1CCN(CCCCOc2cc3c(cc2OC)C(=O)N2CCC[C@H]2C=N3)CC1` [Compound 9f, 7-Methoxy-8-[4-(4-{4-[4(1,3-benzothiazol-2-yl)-2-methoxyphenoxy]butyl}piperazin-1-yl)butyl]oxy-(11aS)-1,2,3,11a-tetrahydro-5H-pyrrolo[2,1-c][1,4]benzodiazepin-5-one] gave a GI50 ([1]; read-out: GI50 PC 3) of under 0.01 µM, a CC50 ([1]; read-out: LC50 Pc 3, 50% cell death, 48 h drug exposure, SRB) of 2.4 µM and a GI50 ([2]; read-out: GI50 HOP 62, 48 h drug exposure, SRB, mean of three determinations) of under 0.01 µM. The LC50 ([2]; read-out: LC50 HOP 62, 50% cell death, 48 h drug exposure, SRB) was 2.4 µM, the GI50 ([3]; read-out: GI50 MCF 7) was under 0.01 µM and the LC50 (concentration causing 50% cell death) ([3]; read-out: LC50 MCF 7, 50% cell death, 48 h drug exposure, SRB) was under 0.01 µM. For the same molecule, the GI50 ([4]; read-out: GI50 Colo 205, 48 h drug exposure, SRB, mean of three determinations) was under 0.01 µM, the CC50 ([4]; read-out: LC50 Colo 205) was over 100 µM and the GI50 ([5]; read-out: GI50 A 2780, 48 h drug exposure, SRB, mean of three determinations) was under 0.01 µM. It also gave a CC50 ([5]; read-out: LC50 A 2780, 50% cell death, 48 h drug exposure, SRB) of 0.089 µM, a GI50 ([6]; read-out: GI50 SiHa, 48 h drug exposure, SRB, mean of three determinations) of under 0.01 µM and an LC50 (concentration causing 50% cell death) ([6]; read-out: LC50 SiHa, 50% cell death, 48 h drug exposure, SRB) of 2.5 µM. The GI50 ([7]; read-out: GI50 A 549, 48 h drug exposure, SRB, mean of three determinations) was under 0.01 µM, the CC50 ([7]; read-out: LC50 A 549, 50% cell death, 48 h drug exposure, SRB) was over 100 µM and the “RTV in in vivo efficacy study” value [8] was “good RTV”. For the same molecule, the “survival data in in vivo efficacy study” value [8] was “good survival data”, the “toxicity in in vivo efficacy study” value [8] was “less toxicity” and the GI50 [9] was under 0.01 µM. For the same molecule, the “ΔTm after incubation at 37° C. for 0 h” value ([10]; 0 h) was 15.5 °C, the “ΔTm after incubation at 37° C. for 18 h” value ([10]; 18 h) was 15.9 °C and the GI50 ([11]; read-out: GI50 KB, 48 h drug exposure, SRB, mean of three determinations) was under 0.01 µM. For the same molecule, the CC50 ([11]; read-out: LC50 KB, 50% cell death, 48 h drug exposure, SRB) was 0.18 µM, the “RTV in in vivo efficacy study” value [12] was “good RTV” and the “survival data in in vivo efficacy study” value [12] was “good survival data”. For the same molecule, the “toxicity in in vivo efficacy study” value [12] was “less toxicity”.
